The target of assay [1] is T1, 5-HT1A (Homo sapiens, UniProt P08908).
T1 sequence (P08908 1-422): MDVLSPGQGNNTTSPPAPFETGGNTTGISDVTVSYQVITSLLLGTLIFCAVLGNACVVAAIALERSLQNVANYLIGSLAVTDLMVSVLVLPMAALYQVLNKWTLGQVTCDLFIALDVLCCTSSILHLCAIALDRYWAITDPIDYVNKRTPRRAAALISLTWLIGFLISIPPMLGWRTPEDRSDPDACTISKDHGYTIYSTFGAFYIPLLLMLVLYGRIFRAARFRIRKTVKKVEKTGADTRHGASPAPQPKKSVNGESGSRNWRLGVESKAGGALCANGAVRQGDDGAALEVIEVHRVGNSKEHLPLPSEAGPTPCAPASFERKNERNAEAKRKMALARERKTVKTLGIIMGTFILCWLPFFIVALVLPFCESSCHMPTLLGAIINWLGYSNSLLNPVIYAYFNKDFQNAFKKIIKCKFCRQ
Description: Radioligand binding at 5-HT1A(h) (agonist radioligand), Eurofins Cerep Panlabs. Particulars: human receptor, duplicate, read-out: Percent Inhibition of the Binding of a Specific Radioligand, 5-HT1A; for inhibition at 0.1 µM: % inh. at 100 nM; for inhibition at 1 µM: % inh. at 1.0 μM. From the text: FIG. 1. Histogram for 5-HT1A(h) (agonist radioligand).

Assay [2] addresses 5-HT2A (Homo sapiens, UniProt P28223). Description: Radioligand binding at 5-HT2A(h) (agonist radioligand), Eurofins Cerep Panlabs. To be noted: human receptor, duplicate, read-out: Percent Inhibition of the Binding of a Specific Radioligand, 5-HT2A; for inhibition at 0.1 µM: % inh. at 100 nM; for inhibition at 1 µM: % inh. at 1.0 μM. From the text:
FIG. 2. Histogram for 5-HT2A(h) (agonist radioligand).

Assay [3] has as its target 5-HT2B (Homo sapiens, UniProt P41595). Description: Radioligand binding at 5-HT2B(h) (agonist radioligand), Eurofins Cerep Panlabs. To be noted: human receptor, duplicate, read-out: Percent Inhibition of the Binding of a Specific Radioligand, 5-HT2B; for inhibition at 0.1 µM: % inh. at 100 nM; for inhibition at 1 µM: % inh. at 1.0 μM. From the text:
FIG. 3. Histogram for 5-HT2B(h) (agonist radioligand).

Assay [4] has as its target T2, 5-HT2C (Homo sapiens, UniProt P28335).
T2 sequence (P28335 33-458): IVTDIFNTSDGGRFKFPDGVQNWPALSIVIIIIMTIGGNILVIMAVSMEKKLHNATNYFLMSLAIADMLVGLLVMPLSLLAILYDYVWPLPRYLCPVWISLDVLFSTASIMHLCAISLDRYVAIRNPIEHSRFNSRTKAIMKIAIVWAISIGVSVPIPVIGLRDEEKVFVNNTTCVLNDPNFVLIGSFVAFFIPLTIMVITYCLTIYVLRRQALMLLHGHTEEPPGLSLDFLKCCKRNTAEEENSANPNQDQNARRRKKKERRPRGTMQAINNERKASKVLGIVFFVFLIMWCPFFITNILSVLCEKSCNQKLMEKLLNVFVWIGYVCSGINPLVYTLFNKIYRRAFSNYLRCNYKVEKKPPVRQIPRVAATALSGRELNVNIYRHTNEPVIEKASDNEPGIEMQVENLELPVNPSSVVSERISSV
The assay is described as follows: Radioligand binding at 5-HT2C(h) (agonist radioligand), Eurofins Cerep Panlabs. To be noted: human receptor, duplicate, read-out: Percent Inhibition of the Binding of a Specific Radioligand, 5-HT2C; for inhibition at 0.1 µM: % inh. at 100 nM; for inhibition at 1 µM: % inh. at 1.0 μM. From the text: FIG. 4. Histogram for 5-HT2C(h) (agonist radioligand).

Assay [5] deals with Adrenergic α1. The assay is described as follows: CNS receptor radioligand binding, Adrenergic α1. Particulars: 10 μM; rat receptor data.
The target in assay [6] is Dopamine D1 (Homo sapiens, UniProt P21728). Description: CNS receptor radioligand binding, Dopamine D1. Particulars: 10 μM.
Sequence of Dopamine D1 (P21728 whole entry): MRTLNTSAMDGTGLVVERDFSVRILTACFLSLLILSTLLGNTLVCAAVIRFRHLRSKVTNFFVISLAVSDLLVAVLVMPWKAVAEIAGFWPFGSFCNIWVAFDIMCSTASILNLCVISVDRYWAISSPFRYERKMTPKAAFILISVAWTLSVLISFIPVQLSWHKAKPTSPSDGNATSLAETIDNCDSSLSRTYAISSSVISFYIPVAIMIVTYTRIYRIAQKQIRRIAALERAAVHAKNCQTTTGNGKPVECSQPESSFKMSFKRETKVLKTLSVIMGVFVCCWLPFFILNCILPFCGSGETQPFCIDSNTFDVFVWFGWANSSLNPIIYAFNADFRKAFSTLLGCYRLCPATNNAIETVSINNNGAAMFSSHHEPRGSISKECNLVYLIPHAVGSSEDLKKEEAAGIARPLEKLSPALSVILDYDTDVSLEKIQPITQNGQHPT
Assay [7] deals with Dopamine D2L (Homo sapiens, UniProt P14416). The assay is described as follows: CNS receptor radioligand binding, Dopamine D2L. To be noted: 10 μM.
Sequence of Dopamine D2L (P14416 whole entry): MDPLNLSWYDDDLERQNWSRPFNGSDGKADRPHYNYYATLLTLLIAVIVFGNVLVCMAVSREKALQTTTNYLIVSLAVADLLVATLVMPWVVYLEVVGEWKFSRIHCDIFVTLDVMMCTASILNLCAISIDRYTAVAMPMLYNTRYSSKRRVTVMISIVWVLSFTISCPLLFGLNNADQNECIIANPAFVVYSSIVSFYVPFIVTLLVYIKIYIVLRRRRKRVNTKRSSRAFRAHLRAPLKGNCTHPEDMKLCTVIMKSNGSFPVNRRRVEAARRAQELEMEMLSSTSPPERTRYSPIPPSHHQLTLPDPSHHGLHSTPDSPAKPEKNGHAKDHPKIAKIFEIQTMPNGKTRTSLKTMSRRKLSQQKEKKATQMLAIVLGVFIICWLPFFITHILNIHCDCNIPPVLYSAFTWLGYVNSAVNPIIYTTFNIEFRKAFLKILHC
Assay [8] addresses Dopamine D3 (Homo sapiens, UniProt P35462). The assay is described as follows: CNS receptor radioligand binding, Dopamine D3.
Assay [9] deals with GABAA. The assay is described as follows: CNS receptor radioligand binding, GABAA. To be noted: 10 μM; rat receptor data.
In assay [10] the target is Histamine H1 (Homo sapiens, UniProt P35367). Description: CNS receptor radioligand binding, Histamine H1 (human). To be noted: 10 μM.
Sequence of Histamine H1 (P35367 whole entry): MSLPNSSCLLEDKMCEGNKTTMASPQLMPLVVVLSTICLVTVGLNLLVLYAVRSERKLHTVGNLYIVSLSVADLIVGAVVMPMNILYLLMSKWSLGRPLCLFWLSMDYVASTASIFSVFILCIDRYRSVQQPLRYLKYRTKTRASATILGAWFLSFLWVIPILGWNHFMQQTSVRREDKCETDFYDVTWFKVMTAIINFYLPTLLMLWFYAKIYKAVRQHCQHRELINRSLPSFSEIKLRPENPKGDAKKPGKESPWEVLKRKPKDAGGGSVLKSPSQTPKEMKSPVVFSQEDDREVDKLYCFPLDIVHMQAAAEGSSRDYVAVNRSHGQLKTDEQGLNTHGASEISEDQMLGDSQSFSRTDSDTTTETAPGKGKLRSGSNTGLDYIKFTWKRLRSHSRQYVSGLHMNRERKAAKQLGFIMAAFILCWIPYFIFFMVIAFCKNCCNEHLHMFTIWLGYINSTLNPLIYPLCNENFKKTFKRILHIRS
Assay [11] has as its target T3, Muscarinic M2 (Homo sapiens, UniProt P08172).
T3 sequence (P08172 1-466): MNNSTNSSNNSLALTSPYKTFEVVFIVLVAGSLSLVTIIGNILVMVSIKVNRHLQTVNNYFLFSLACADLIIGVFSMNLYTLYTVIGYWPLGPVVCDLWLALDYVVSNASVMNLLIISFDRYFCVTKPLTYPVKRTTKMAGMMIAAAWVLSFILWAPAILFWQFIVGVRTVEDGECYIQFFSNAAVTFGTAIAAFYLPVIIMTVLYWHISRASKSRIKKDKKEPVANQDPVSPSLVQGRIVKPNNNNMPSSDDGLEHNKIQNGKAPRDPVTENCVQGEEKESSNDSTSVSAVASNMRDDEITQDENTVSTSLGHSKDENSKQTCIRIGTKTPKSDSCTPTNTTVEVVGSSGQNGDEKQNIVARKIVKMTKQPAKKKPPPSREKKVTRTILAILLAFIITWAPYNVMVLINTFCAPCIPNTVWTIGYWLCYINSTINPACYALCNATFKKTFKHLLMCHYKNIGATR
The assay is described as follows: CNS receptor radioligand binding, Muscarinic M2. Particulars: 10 μM.

Assay [12] concerns the target T4, Muscarinic M5 (Homo sapiens, UniProt P08912).
T4 sequence (P08912 1-532): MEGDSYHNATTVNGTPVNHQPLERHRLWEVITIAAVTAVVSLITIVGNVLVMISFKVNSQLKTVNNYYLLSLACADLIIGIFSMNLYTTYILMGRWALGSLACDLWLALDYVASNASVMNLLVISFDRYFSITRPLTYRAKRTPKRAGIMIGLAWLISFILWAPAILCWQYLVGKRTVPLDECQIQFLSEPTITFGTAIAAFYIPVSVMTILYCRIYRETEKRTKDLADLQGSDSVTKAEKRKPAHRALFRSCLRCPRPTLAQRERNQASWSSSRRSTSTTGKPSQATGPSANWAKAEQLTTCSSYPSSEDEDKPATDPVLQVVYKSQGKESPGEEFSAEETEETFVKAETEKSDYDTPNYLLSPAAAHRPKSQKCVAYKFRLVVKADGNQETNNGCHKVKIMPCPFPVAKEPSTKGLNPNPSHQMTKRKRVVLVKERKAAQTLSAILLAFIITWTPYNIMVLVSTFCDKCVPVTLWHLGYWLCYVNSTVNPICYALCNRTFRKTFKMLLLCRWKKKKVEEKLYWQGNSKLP
Description: CNS receptor radioligand binding, Muscarinic M5. To be noted: 10 μM.

Assay [13] concerns the target Nicotinic Acetylcholine α4β2 (Homo sapiens, UniProt P17787+P43681). The assay is described as follows: CNS receptor radioligand binding, Nicotinic Acetylcholine α4β2. To be noted: 10 μM.
For assay [14], the target named is Opiate κ (Homo sapiens, UniProt P41145). Description: CNS receptor radioligand binding, Opiate κ. Particulars: 10 μM.
Sequence of Opiate κ (P41145 whole entry): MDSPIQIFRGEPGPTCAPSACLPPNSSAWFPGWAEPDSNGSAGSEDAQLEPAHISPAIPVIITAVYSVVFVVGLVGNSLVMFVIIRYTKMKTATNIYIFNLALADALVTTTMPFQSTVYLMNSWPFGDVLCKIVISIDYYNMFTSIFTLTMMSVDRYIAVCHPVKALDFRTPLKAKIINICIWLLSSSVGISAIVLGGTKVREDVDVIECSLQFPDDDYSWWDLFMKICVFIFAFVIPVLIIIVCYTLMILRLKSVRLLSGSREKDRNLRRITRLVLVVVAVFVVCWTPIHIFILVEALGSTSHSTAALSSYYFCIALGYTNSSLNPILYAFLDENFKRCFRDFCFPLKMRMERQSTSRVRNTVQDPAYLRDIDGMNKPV
Assay [15] has as its target T5, Orexin OX1 (Homo sapiens, UniProt O43613).
T5 sequence (O43613 1-425): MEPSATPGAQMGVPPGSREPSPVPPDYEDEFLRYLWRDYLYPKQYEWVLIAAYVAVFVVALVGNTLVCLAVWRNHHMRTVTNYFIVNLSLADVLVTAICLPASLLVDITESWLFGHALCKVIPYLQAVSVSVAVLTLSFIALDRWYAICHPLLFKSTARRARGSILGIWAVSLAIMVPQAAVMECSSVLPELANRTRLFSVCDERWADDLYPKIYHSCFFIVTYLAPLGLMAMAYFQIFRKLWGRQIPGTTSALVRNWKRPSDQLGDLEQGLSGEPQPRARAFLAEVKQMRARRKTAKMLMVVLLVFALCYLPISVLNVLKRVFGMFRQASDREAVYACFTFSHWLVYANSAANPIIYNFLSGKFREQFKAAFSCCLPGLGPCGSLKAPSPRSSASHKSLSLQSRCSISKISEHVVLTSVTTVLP
Description: CNS receptor radioligand binding, Orexin OX1. Particulars: 10 μM.

For assay [16], the target named is T6, Serotonin 5-HT1A (Homo sapiens, UniProt P08908).
T6 sequence (P08908 1-422): T1 sequence (P08908 1-422)
Description: CNS receptor radioligand binding, Serotonin 5-HT1A.

In assay [17] the target is T7, Serotonin 5-HT2A (Homo sapiens, UniProt P28223). Description: CNS receptor radioligand binding, Serotonin 5-HT2A.
T7 sequence (P28223 whole entry, looked up): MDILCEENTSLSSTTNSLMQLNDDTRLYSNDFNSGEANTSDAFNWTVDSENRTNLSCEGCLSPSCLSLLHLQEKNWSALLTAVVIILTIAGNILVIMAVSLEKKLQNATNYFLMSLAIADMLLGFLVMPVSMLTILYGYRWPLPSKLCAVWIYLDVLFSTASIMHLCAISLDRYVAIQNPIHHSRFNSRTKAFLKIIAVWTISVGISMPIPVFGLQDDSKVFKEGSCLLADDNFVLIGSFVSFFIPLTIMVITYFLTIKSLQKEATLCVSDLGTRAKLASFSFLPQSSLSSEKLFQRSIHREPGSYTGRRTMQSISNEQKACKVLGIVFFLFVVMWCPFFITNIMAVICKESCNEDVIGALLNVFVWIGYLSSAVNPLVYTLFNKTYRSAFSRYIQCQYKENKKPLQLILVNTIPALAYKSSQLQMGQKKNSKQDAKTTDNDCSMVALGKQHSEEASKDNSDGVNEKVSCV
The target of assay [18] is T6, Serotonin 5-HT1A. Description: Receptor activation potency, Serotonin 5-HT1A. It is filed as biochemical. To be noted: 5-point concentration response curves, duplicate.
Assay [19] concerns the target T7, Serotonin 5-HT2A. Description: Receptor activation potency, Serotonin 5-HT2A. It is filed as biochemical. Particulars: 5-point concentration response curves, duplicate.
In assay [20] the target is Serotonin 5-HT2B (Homo sapiens, UniProt P41595). The assay is described as follows: Receptor activation potency, Serotonin 5-HT2B. Particulars: 5-point concentration response curves, duplicate. It is filed as biochemical.
Sequence of Serotonin 5-HT2B (P41595 whole entry): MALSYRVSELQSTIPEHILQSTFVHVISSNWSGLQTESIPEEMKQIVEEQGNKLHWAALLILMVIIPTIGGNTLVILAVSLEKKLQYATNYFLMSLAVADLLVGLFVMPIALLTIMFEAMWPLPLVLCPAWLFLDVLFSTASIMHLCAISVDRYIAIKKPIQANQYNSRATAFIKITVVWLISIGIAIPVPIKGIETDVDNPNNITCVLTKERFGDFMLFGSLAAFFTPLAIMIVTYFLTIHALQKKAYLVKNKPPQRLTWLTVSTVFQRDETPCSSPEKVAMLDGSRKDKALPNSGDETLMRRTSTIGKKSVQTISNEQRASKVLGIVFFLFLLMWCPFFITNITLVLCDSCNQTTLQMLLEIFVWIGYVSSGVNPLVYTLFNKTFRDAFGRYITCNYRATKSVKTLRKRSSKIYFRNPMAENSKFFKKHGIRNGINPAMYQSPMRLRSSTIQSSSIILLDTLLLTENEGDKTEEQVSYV
Assay [21] addresses T8, Serotonin 5-HT2C (Homo sapiens, UniProt P28335).
T8 sequence (P28335 33-458): T2 sequence (P28335 33-458)
Description: Receptor activation potency, Serotonin 5-HT2C. Type of assay: biochemical. Particulars: 5-point concentration response curves, duplicate.

Assay [22] concerns the target Sigma-1 (Homo sapiens, UniProt Q99720). The assay is described as follows: Inhibition constant, Sigma-1. It is filed as binding. Particulars: human receptor; 5-point concentration response curves; duplicate; read-out: inhibition constants Ki, Sigma-1.

Sequence of 5-HT2B (P41595 whole entry): as above
Sequence of 5-HT2A (P28223 whole entry, looked up): as the sequence (P28223 whole entry, looked up) above
Sequence of Dopamine D3 (P35462 whole entry): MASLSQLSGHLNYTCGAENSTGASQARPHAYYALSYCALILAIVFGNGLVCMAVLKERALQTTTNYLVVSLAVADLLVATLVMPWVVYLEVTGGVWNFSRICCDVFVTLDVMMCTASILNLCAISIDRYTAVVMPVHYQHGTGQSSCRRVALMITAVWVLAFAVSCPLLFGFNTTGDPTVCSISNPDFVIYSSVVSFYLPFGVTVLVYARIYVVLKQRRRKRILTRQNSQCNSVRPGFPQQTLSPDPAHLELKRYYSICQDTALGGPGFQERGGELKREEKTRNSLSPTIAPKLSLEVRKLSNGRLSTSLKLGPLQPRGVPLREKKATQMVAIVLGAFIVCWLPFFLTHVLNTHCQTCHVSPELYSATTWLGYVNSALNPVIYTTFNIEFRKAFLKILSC
Sequence of Sigma-1 (Q99720 whole entry): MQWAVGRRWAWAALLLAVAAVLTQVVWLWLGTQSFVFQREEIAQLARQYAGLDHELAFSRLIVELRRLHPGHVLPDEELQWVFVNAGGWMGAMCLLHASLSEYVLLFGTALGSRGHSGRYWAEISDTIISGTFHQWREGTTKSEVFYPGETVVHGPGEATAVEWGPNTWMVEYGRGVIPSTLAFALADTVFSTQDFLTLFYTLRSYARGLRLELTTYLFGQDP
Sequence of Nicotinic Acetylcholine α4β2 (P43681 29-627 limits assumed): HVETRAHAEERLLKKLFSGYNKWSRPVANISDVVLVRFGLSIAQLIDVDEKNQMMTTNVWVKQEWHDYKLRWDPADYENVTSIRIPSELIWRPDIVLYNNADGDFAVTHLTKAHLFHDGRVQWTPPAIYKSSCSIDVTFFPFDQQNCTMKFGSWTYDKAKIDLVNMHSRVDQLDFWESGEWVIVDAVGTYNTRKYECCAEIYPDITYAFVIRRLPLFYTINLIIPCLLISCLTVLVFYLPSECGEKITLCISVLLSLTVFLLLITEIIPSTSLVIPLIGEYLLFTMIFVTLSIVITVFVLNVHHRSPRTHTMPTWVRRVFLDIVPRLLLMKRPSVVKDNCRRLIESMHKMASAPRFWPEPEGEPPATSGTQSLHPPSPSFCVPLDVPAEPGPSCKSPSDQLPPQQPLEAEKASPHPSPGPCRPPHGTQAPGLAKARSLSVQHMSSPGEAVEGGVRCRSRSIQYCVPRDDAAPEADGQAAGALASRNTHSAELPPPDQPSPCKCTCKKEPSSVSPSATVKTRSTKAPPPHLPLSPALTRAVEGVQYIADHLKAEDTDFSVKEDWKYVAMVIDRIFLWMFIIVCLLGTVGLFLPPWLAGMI
Sequence of Nicotinic Acetylcholine α4β2 (P17787 26-502): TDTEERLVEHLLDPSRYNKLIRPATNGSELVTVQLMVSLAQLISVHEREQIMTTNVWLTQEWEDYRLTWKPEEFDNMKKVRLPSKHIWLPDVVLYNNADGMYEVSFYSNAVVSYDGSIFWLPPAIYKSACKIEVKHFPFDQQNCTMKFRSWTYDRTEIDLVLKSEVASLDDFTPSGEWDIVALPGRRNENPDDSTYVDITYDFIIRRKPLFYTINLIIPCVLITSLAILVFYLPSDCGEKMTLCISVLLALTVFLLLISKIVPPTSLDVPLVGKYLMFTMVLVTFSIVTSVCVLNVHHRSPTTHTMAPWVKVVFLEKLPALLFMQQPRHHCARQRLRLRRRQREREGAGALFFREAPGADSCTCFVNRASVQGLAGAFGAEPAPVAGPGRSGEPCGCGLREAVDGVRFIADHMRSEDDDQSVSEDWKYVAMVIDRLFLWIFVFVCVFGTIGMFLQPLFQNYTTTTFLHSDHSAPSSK

As for `CN1C[C@@H](CO)C=C2c3cccc4[nH]cc(c34)C[C@@H]21` [(−)-1, (−)-lysergol], the inhibition at 0.1 µM in [1] came out at 27%; in [2], 12%; in assay [3], 34%; in assay [4], 41%. Further, the inhibition at 1 µM in [1] is 67%; in [2], 62%; in [3], 87%; in [4], 86%.
`CN1C[C@H](CO)C=C2c3cccc4[nH]cc(c34)C[C@H]21` [(+)-1, (+)-lysergol]: the inhibition at 0.1 µM was 94% in assay [1], 96% in assay [2], 96% in assay [3] and 97% in assay [4]. The inhibition at 1 µM in [1] is 99%; in assay [2] it was 97%; in [3] it was 99%; in [4], 99%.
For the molecule (+)-Cycloclavine, the “Percent Inhibition of Specific Binding of a Radioligand Standard, Adrenergic α1” value in assay [5] stood at 57 % inh. The “Percent Inhibition of Specific Binding of a Radioligand Standard, Dopamine D1” value in [6] was 91 % inh. Further, the “Percent Inhibition of Specific Binding of a Radioligand Standard, Dopamine D2L” value in [7] is reported as 81 % inh. Further, the “Percent Inhibition of Specific Binding of a Radioligand Standard, Dopamine D3” value in assay [8] (1 μM) is reported as 75 % inh; in assay [8] (10 μM) it was 93 % inh. For the same molecule, the “Percent Inhibition of Specific Binding of a Radioligand Standard, GABAA” value in assay [9] was found to be 9 % inh. Also, in assay [10], the “Percent Inhibition of Specific Binding of a Radioligand Standard, Histamine H1” value is given as 17 % inh. Also, the “Percent Inhibition of Specific Binding of a Radioligand Standard, Muscarinic M2” value in assay [11] was 0 % inh. Also, in assay [12], the “Percent Inhibition of Specific Binding of a Radioligand Standard, Muscarinic M5” value was 11 % inh. The “Percent Inhibition of Specific Binding of a Radioligand Standard, Nicotinic Acetylcholine α4β2” value in [13] is on record as 9 % inh. Besides, the “Percent Inhibition of Specific Binding of a Radioligand Standard, Opiate κ” value in assay [14] was 73 % inh. In addition, in assay [15], the “Percent Inhibition of Specific Binding of a Radioligand Standard, Orexin OX1” value turned out to be 23 % inh. Also, the “Percent Inhibition of Specific Binding of a Radioligand Standard, Serotonin 5-HT1A” value in assay [16] (1 μM) and in assay [16] (10 μM) was 97 % inh in each case. The “Percent Inhibition of Specific Binding of a Radioligand Standard, Serotonin 5-HT2A” value in assay [17] (1 μM) and in assay [17] (10 μM) was 100 % inh each time. In addition, the EC50 in assay [18] is 0.14 µM; in assay [19], approximately 10 µM; in assay [20], more than 20 µM; in assay [21], 0.016 µM. The Ki in assay [22] is approximately 50 µM.
Consider `CN1C[C@@H](CO)C=C2c3cccc4[nH]cc(c34)C[C@H]21` [(+)-2, (+)-isolysergol], for which the inhibition at 0.1 µM in assay [1] worked out at 96%; in assay [2], 92%; in assay [3], 90%; in assay [4] it was 91%. The inhibition at 1 µM in assay [1] came out at 99%; in [2], 99%; in [3] it was 93%; in [4], 97%.
As for `CN1C[C@H](CO)C=C2c3cccc4[nH]cc(c34)C[C@@H]21` [(−)-2, (−)-isolysergol], the inhibition at 0.1 µM in [1] was 9%; in [2] it was 0%; in [3], 3%; in [4], 5%. In addition, the inhibition at 1 µM worked out at 19% in assay [1], 20% in assay [2], 16% in [3] and 44% in assay [4].

The values are drawn from patent US20240343692A1 (priority 2021, published 2024).
